The subject of assay [1] is Protease M. Nature of the assay: Relative activity on nitrophenyl-sugar substrates: Protease M. The class given is biochemical, Aspergillus oryzae. Particulars: 100 units arbitrarily chosen for the substrate on which Protease M exhibited the most activity. The procedure:
(§1) The relative activity of Protease M and β-glycosidase on different sugar substrates was assessed. A panel of substrates comprising a nitrophenyl group conjugated to different sugars was used in the study.

Assay [2] concerns β-glycosidase. In words: Relative activity on nitrophenyl-sugar substrates: β-glycosidase. The assay is classed as biochemical, Penicillium multicolor. The note with it: 100 units arbitrarily chosen for the substrate on which β-glycosidase exhibited the most activity. The procedure: as §1

SMILES strings stand for the structures.

For `O=[N+]([O-])c1ccc(O[C@@H]2O[C@H](CO)[C@@H](O[C@@H]3O[C@H](CO)[C@@H](O)[C@H](O)[C@H]3O)[C@H](O)[C@H]2O)cc1` [4-Nitrophenyl β-D-cellobioside], the “relative activity of Protease M for the substrate” value (“relative activity of Protease M” for short) in assay [1] is given as 68 activity units. In addition, the “relative activity of β-glycosidase for the substrate” value (“relative activity of β-glycosidase” for short) in assay [2] is listed as 55 activity units.
Consider `O=[N+]([O-])c1ccc(O[C@H]2O[C@H](CO)[C@@H](O)[C@H](O)[C@H]2O)cc1` [4-Nitrophenyl α-D-glucopyranoside], for which the “relative activity of Protease M” value in assay [1] was found to be 42 activity units. In addition, the “relative activity of β-glycosidase” value in assay [2] is recorded as 19 activity units.
In the case of `O=[N+]([O-])c1ccc(O[C@@H]2OC[C@H](O)[C@H](O)[C@H]2O)cc1` [4-Nitrophenyl α-L-arabinopyranoside], the “relative activity of Protease M” value in assay [1] turned out to be 29 activity units. Besides, the “relative activity of β-glycosidase” value in assay [2] is reported as 60 activity units.
Regarding `O=[N+]([O-])c1ccc(O[C@@H]2O[C@H](CO)[C@@H](O)[C@H](O)[C@@H]2O)cc1` [4-Nitrophenyl β-D-mannopyranoside], in assay [1], the “relative activity of Protease M” value worked out at 10 activity units. For the same compound, the “relative activity of β-glycosidase” value in assay [2] is recorded as 12 activity units.
For the compound `O=[N+]([O-])c1ccc(O[C@@H]2O[C@H](CO)[C@@H](O[C@H]3O[C@H](CO)[C@@H](O)[C@H](O)[C@H]3O)[C@H](O)[C@H]2O)cc1` [4-Nitrophenyl β-D-maltoside], the “relative activity of Protease M” value in assay [1] is 63 activity units. For the same compound, the “relative activity of β-glycosidase” value in assay [2] is on record as 57 activity units.
For the compound `O=C(O)[C@H]1O[C@@H](Oc2ccc([N+](=O)[O-])cc2)[C@H](O)[C@@H](O)[C@@H]1O` [4-Nitrophenyl β-D-glucuronide], the “relative activity of Protease M” value in assay [1] is listed as 4 activity units. Besides, in assay [2], the “relative activity of β-glycosidase” value is reported as 12 activity units.
Regarding `O=[N+]([O-])c1ccc(O[C@H]2O[C@H](CO)[C@H](O)[C@H](O)[C@H]2O)cc1` [4-Nitrophenyl α-D-galactopyranoside], the “relative activity of Protease M” value in assay [1] was 6 activity units. For the same compound, the “relative activity of β-glycosidase” value in assay [2] is recorded as 100 activity units.
`O=[N+]([O-])c1ccc(O[C@H]2O[C@H](CO)[C@@H](O)[C@H](O)[C@@H]2O)cc1` [4-Nitrophenyl α-D-mannopyranoside]: the “relative activity of Protease M” value in assay [1] came out at 4 activity units. Further, in assay [2], the “relative activity of β-glycosidase” value was 19 activity units.
For `O=[N+]([O-])c1ccc(O[C@@H]2O[C@H](CO)[C@H](O)[C@H](O)[C@H]2O)cc1` [4-Nitrophenyl β-D-galactopyranoside], in that order: 100 activity units and 85 activity units.

The record behind these values is patent publication US20070020744A1, “Enzyme compositions that enhance the flavor of food and beverages” (Amano Enzyme USA Co., Ltd, priority 2005, published 2007).
